Results reported in US20150309029A1, “Methods for Cancer Diagnosis, Anti-Cancer Drug Screening, and Test of Drug Effectiveness on the Basis of Phoshorylation of Ras at Thr-144 and Thr-148” (Industry-Academic Cooperation Foundation, Yonsei University, priority 2010, published 2015).
Where a SMILES comes first, the peptide text is derived from it. [ ]: non-standard residue; d: D form. Nle = CCCC[C@H](N)C(=O)O

How the values were obtained:
Type in all cases: cell-based, human
[1] = test system: phosphor-mimetic form of H-Ras; experiment: Immunoblot of phospho-mimetic H-Ras level in transfected HEK293 cells after ALLN; settings: ALLN for 12 hours, immunoblot (FIG. 5A lower panels)
Protocol: The protein expression level of the phosphorylation mimetic mutant is too low to be detected due to the severe destabilization; therefore, the proteasomal inhibitor, ALLN was treated to check for the accumulation of phosphor-mimetic form of H-Ras.
HEK293 cells were transfected with pcDNA3.1-H-Ras, pcDNA3.1-H-Ras-T144E/T148E, or pcDNA3.1-H-Ras-T144D/T148D. For indicated cases, ALLN was also administered for 12 hours. WCEs were immunoblotted with anti-Myc or -α-tubulin antibody (FIG. 5A lower panels). Treatment with ALLN increased the level of phosphor-mimetic form of H-Ras.

[2] = test system: polyubiquitin-conjugated K- and N-Ras proteins; experiment: IP/immunoblot of polyubiquitinated K- and N-Ras in transfected HEK293 cells after ALLN; settings: ALLN treatment, IP with anti-Myc (FIG. 8A)
Protocol: To examine the possibility that K- and N-Ras proteins, similar to H-Ras, were subjected to polyubiquitination by proteasomal degradation, HEK293 cells were transfected with pcDNA3.1-H-Ras, pcDNA3.1-K-Ras, or pcDNA3.1-N-Ras with pCS4-3xFlag-Ub. Cells were treated with ALLN followed by IP with anti-Myc antibody and then immunoblotted with anti-Myc, -α-tubulin, or -Flag antibody. […] Therefore, we confirmed that H-, K-, N-Ras protein stability is regulated by polyubiquitin-dependent proteasomal degradation (FIG. 8A).

[3] = test system: Pan-Ras; experiment: Polyubiquitination of endogenous Pan-Ras in HEK293 cells with Gsk3β siRNA; settings: siRNA knockdown, ALLN 12 hours (FIG. 1A)
Protocol: Full-length human H-Ras was isolated from a HEK293 cell cDNA library by PCR and then inserted into the pcDNA-3.1-myc vector using EcoRI and HindIII restriction sites. PcDNA3.1-Gsk3β-V5 was constructed in a similar method. HEK293 cells were transfected with vector/nonspecific siRNA, Gsk3β siRNA, or pcDNA3.1-Gsk3β-V5 together with pCS4-3xFlag-Ub for 24 hours and treated with the proteasome inhibitor ALLN for 12 hours. WCEs (whole cell extracts) were then immunoprecipitated (IP) with anti-Pan-Ras antibody to detect the polyubiquitinated H-Ras. WCEs were immunoblotted with antibodies to Gsk3β, Pan-Ras, Myc-H-Ras or α-tubulin. The siRNA sequences for Gsk3β NM_002093) were 5′-[…]-3′ (SEQ ID NO: 2) and 5′-[…]-3′ (SEQ ID NO: 3). The GFP siRNA used for the negative control was 5′-[…]-3′ (SEQ ID NO: 4) (synthesized by Samchully Pharmaceutical, Korea).

[4] = test system: H-Ras; experiment: H-Ras polyubiquitination in HEK293 cells with Gsk3β or Axin siRNA; settings: siRNA knockdown, ALLN 12 hours (FIG. 1C)
Protocol: Next, HEK293 cells were transfected with vector/nonspecific siRNA, pSUPER-Axin siRNA, pCS2-MT-Axin, siGsk3β, and/or pcDNA3.1-Gsk3β-V5 together with pcDNA3.1-H-Ras and pCS4-3xFlag-Ub for 24 hours and then treated with ALLN for 12 hours. IP and immunoblotting were performed as described above.

[5] = test system: H-Ras; experiment: IP/immunoblot of H-Ras polyubiquitination and β-TrCP interaction in HEK293 cells with Wnt3a
Protocol: HEK293 cells were transfected the pcDNA3.1-H-Ras, pcDNA3.1-H-Ras-T144E/T148E, or pcDNA3.1-H-Ras-T144A/T148A with vector, pcDNA3.1-Gsk3β-V5, and/or pcDNA3.1-Flag-β-TrCP, together with pCS4-3xHA-Ub, treated with ALLN for 12 hours and/or Wnt3a for 2 hours as indicated, and prepared for IP with anti-Myc antibody. IPs and WCEs were immunoblotted with anti-HA, -β-TrCP or -α-tubulin antibody.

CCCC[C@@H](C=O)NC(=O)[C@H](CC(C)C)NC(=O)[C@H](CC(C)C)NC(C)=O [ALLN] (Ac-Leu-Leu-[Nle]-aldehyde)
level of phosphor-mimetic form of H-Ras [1]: increased
accumulation of polyubiquitin-conjugated K- and N-Ras proteins [2]: accumulation of polyubiquitin-conjugated K- and N-Ras proteins

Gsk3β siRNA: siRNA for Gsk3β: 5′-CACUGAUUAUACCUCUAGU-3′ and 5′-CACUGUAACAUAGUCCGAU-3′ (chemistry not given here)
levels of Pan-Ras polyubiquitination [3]: decreased
H-Ras polyubiquitination [4]: decreased

B1: Wnt3a: recombinant Wnt3a (protein, UniProt P56704 19-352, looked up)
Protein Wnt-3a: SYPIWWSLAVGPQYSSLGSQPILCASIPGLVPKQLRFCRNYVEIMPSVAEGIKIGIQECQHQFRGRRWNCTTVHDSLAIFGPVLDKATRESAFVHAIASAGVAFAVTRSCAEGTAAICGCSSRHQGSPGKGWKWGGCSEDIEFGGMVSREFADARENRPDARSAMNRHNNEAGRQAIASHMHLKCKCHGLSGSCEVKTCWWSQPDFRAIGDFLKDKYDSASEMVVEKHRESRGWVETLRPRYTYFKVPTERDLVYYEASPNFCEPNPETGSFGTRDRTCNVSSHGIDGCDLLCCGRGHNARAERRREKCRCVFHWCCYVSCQECTRVYDVHTCK
polyubiquitination of phospho-deficient form of H-Ras ([5]; Wnt3a, T144A/T148A H-Ras): not affected
polyubiquitination and interaction with β-TrCP of Wt H-Ras increased by Gsk3β transfection ([5]; recombinant Wnt3a for 2 hours, Wt H-Ras): blocked
